Measured values published in publication PMC3465347, “Regulation of NF-κB Activation through a Novel PI-3K-Independent and PKA/Akt-Dependent Pathway in Human Umbilical Vein Endothelial Cells” (PLoS ONE, 2012).

Tests used:
[1] = system: human endothelial cells (HUVECs); assay: MTT cytotoxicity assay; format: cell-based
Description: The cytotoxicity of MPG and its derivatives was analyzed by colorimetric assay using MTT (Thiazolyl blue tetrazolium bromide) reagent as described previously. All experiments were performed at least 3 times in triplicate wells. From this assay, the percentage viability (% viability) of the cells at various concentrations of each compound was determined by normalization to control wells that contained cells incubated in vehicle (0.25% DMSO or cell culture medium) and which were considered 100% viable. The highest concentration at which the viability of the cells was >95% was denoted as the maximum tolerable concentration for that compound.

[2] = system: TNF-α-induced ICAM-1 expression on human endothelial cells; assay: Cell-ELISA for ICAM-1 expression; format: cell-based
Description: (§1) The endothelial cells were incubated with or without MPG and its derivatives at various concentrations for 2 h followed by treatment with TNF-α (10 ng/ml) for 16 h for ICAM-1 and VCAM-1 expression and 4 h for E-selectin expression. A Cell-ELISA was used to assess the expression of ICAM-1, VCAM-1 and E-selectin on the surface of endothelial cells as described previously.

[3] = system: TNF-α-induced VCAM-1 expression on human endothelial cells; assay: Cell-ELISA for VCAM-1 expression; format: cell-based; settings: added 2–4 h prior to TNF-α stimulation; data not shown
Description: as §1

[4] = system: ICAM-1 mRNA in endothelial cells; assay: RT-PCR of ICAM-1 transcript; format: cell-based, human; settings: 400 µM pretreatment, TNF-α 10 ng/ml 4 h
Description: (§2) In order to examine whether MPTAG reduced the mRNA transcript levels of cell adhesion molecules genes, the endothelial cells were pretreated with 400 µM MPTAG for 2 h before induction with TNF-α for 4 h followed by RT-PCR. RNA was isolated from MPTAG-treated cells according to a modified guanidinium thiocyanate procedure. The expression of the transcripts for ICAM-1, VCAM-1 and E-selectin was evaluated by RT-PCR [45]. β-Actin levels expressed under similar conditions were used as a loading control.

[5] = system: E-selectin mRNA in endothelial cells; assay: RT-PCR of E-selectin transcript; format: cell-based, human; settings: 400 µM pretreatment, TNF-α 10 ng/ml 4 h
Description: as §2

[6] = system: NF-κB p65 phosphorylation in endothelial cells; assay: p65 phosphorylation western blot; format: cell-based, human; settings: 400 µM pretreatment
Description: (§3) Nuclear and cytoplasmic extracts were fractionated on SDS-PAGE with equal amount of proteins per well and transferred onto PVDF membranes and those membranes were incubated with appropriate primary antibodies and treated with HRP conjugated secondary antibodies followed by detection with DAB-H2O2 system. β-tubulin, α-actin and Lamin B1 were used as loading controls. Antibodies against NF-κBp65, phosphoNF-κBp65, IκBα, phosphoIκBα, IKK-β, Akt, phosphoAkt (Ser473) and phosphoAkt (Thr308) were used.

[7] = system: TNF-α-induced IKK-β activation in HUVECs; assay: IKK-β activation in treated cells (immunoprecipitation, kinase assay); format: cell-based, human
Description: (§4) In brief, confluent HUVECs were incubated with or without MPTAG and were stimulated with TNF-α (10 ng/ml) for 15 mins. The cells were washed and lysed in Lysis buffer containing 50 mM HEPES, pH 7.6, 10% glycerol, 1 mM sodium orthovanadate, 100 mM NaCl, 1% NP-40, 1 mM EDTA and protease inhibitor cocktail and allowed to swell on ice for 45 mins. Following centrifugation at 13,000 rpm for 45 mins, the supernatants were collected as “total cell extracts” and stored at −70°C. Immunoprecipitation was performed as per the instructions of Protein G immunoprecipitation kit (Sigma Aldrich, USA). Endogenous IKK complexes were immunoprecipitated in the following reaction mixtures: 100–300 µg of total cell extracts were incubated with 2–4 µg anti-IKK-β or PKAα antibody in 100 µl 1× IP buffer. After incubation for 16 h at 4°C with constant shaking, 50 µl of activated protein G beads were added and the mixture was incubated under rotation for an additional 3 h at 4°C.
(§5) Kinase assay was performed as previously described. Immunoprecipitates from 100 µg of total cell extracts were used for kinase assays. The reaction mixture consisted of kinase buffer (20 mM Tris Cl, pH 7.6, 1 mM EDTA, 1 mM sodium orthovanadate, 20 mM MgCl2, 2 mM DTT), 2 µg GST-IκBα(1–54), 5 µM ATP and 1 µCi [γ ^32P] ATP in a volume of 30 µl. […]

[8] = target: T1, IKK-β (Homo sapiens, UniProt O14920); assay: Direct IKK-β kinase assay on immunoprecipitated IKK-β; format: biochemical; settings: immunoprecipitated IKK-β incubated with MPTAG
T1 construct: Endogenous IKK complexes were immunoprecipitated in the following reaction mixtures; endogenous in cells; host or cells: HUVEC (uninduced and TNF-α-induced), anti-IKK-β immunoprecipitate
Description: as §4, §5

[9] = system: Akt phosphorylation in HUVECs; assay: Akt phosphorylation western blot; format: cell-based, human
Description: as §3

[10] = system: ERK1/2; assay: ERK1/2 activation western blot; format: cell-based, human; settings: MPTAG pretreatment
[11] = system: PI-3K; assay: PI-3K activity assay; format: cell-based, human; settings: pretreatment, HUVECs
Source text: The catalytic domain of PI-3K was immunoprecipitated from the stimulated and unstimulated endothelial in presence and absence of various compound treatment using an anti-p85α (N-18) antibody. The immunoprecipated proteins were subjected to kinase activity assay using a PI substrate, diC8 followed by detection of the PI(3)P as per the instructions of the Class III PI-3kinase kit (Echelon, USA).

[12] = target: T2, PKA (Homo sapiens, UniProt P17612); assay: PKA activity assay; format: cell-based
T2 construct: PKA was immunoprecipitated from the total cell lysates of unstimulated and TNF-α-stimulated endothelial cells; endogenous in cells; host or cells: HUVEC (treated with MPTAG, SQ 22536, H-89 ± TNF-α), anti-PKAα immunoprecipitate
Source text: PKA was immunoprecipitated from the total cell lysates of unstimulated and TNF-α-stimulated endothelial cells in presence and absence of treatment with agents indicated in Figure 7 using anti-PKAα (W-18) antibody. The immunoprecipates were subjected to kinase activity assay using a Bisamide Rhodamine 110 peptide substrate as per the instructions of the Profluor PKA assay kit (Promega, USA).

T1 sequence (O14920 whole entry): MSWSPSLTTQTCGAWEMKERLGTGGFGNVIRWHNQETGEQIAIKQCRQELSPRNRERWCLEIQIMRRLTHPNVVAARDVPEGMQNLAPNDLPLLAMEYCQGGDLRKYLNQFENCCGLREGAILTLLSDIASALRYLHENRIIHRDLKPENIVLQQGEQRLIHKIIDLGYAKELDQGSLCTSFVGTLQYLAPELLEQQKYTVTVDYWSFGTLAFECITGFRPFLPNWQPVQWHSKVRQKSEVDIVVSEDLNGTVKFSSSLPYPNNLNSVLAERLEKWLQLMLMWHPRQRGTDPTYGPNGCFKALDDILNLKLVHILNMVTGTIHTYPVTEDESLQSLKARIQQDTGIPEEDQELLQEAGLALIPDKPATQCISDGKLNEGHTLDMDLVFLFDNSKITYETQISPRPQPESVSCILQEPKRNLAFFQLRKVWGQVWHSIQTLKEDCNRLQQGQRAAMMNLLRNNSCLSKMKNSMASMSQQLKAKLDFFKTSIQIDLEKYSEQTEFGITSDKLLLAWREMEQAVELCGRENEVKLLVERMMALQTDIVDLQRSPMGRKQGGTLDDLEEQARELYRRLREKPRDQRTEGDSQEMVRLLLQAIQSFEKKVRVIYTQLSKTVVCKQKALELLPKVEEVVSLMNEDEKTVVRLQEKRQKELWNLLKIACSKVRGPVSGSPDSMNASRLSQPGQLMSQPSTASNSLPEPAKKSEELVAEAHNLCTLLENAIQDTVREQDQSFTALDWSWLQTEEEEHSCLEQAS

**Q.** With CC(=O)OC[C@H]1O[C@@H](Oc2c(C)occc2=O)[C@H](OC(C)=O)[C@@H](OC(C)=O)[C@@H]1OC(C)=O [MPTAG, 2-methyl-pyran-4-one-3-O-β-D-2′,3′,4′,6′-tetra-O-acetyl glucopyranoside] as the molecule, how does the “morphology and viability in HUVECs” value ([1]; 400 µM) read?
**A.** without affecting

**Q.** What about the “cytotoxicity compared to parent compound MPG and the other two derivatives” value ([1]; MTT, human endothelial cells) of the same molecule?
**A.** less cytotoxic

**Q.** And the “inhibition of ICAM-1” value ([2]; added 2–4 h prior to TNF-α stimulation, data not shown)?
**A.** maximum inhibition

**Q.** What about the “rank among derivatives for inhibition of TNF-α-induced ICAM-1, VCAM-1, E-selectin expression and neutrophil adhesion” value ([2]; human endothelial cells, Table S2) of the same molecule?
**A.** most active derivative

**Q.** What about the “inhibition of VCAM-1” value [3] of the same molecule?
**A.** maximum inhibition

**Q.** What about the “TNF-α-induced ICAM-1 mRNA level” value [4] of the same molecule?
**A.** significantly reduced

**Q.** What about the “TNF-α-induced E-selectin mRNA level” value [5] of the same molecule?
**A.** significantly reduced

**Q.** And the “TNF-α-induced p65 phosphorylation in the cytoplasm” value [6]?
**A.** inhibits p65 phosphorylation

**Q.** What about the “TNF-α-induced activation of IKK-β” value ([7]; pretreatment of cells, dose-dependent) of the same molecule?
**A.** appreciably suppressed

**Q.** What about the “protein levels of IKK-β” value ([7]; western blot) of the same molecule?
**A.** neither TNF-α nor MPTAG affected

**Q.** And the “activity of IKK-β by direct interaction” value [8]?
**A.** did not affect

**Q.** What about the “protein levels of Akt” value ([9]; 400 µM) of the same molecule?
**A.** without affecting

**Q.** And the “inhibitory effect of MPTAG on TNF-α-induced Akt phosphorylation when H-89 added prior” value ([9]; H-89 added prior to MPTAG)?
**A.** completely abolished

**Q.** And the “TNF-α-induced phosphorylation of Akt at Ser473” value ([9]; MPTAG 400 µM, TNF-α 30 mins)?
**A.** inhibited

**Q.** And the “TNF-α-induced phosphorylation of Akt at Thr308” value ([9]; MPTAG 400 µM, TNF-α 30 mins)?
**A.** inhibited

**Q.** And the “TNF-α-induced Akt phosphorylation (Thr308), independently of wortmannin” value ([9]; with or without wortmannin before MPTAG)?
**A.** dose-dependently inhibited

**Q.** What about the “TNF-α-induced ERK activation” value [10] of the same molecule?
**A.** no effect

**Q.** What about the “TNF-α-induced PI-3K activity” value [11] of the same molecule?
**A.** no effect

**Q.** And the “PKA activity in unstimulated HUVECs, MPTAG and SQ 22536 added together” value ([12]; MPTAG + SQ 22536)?
**A.** remained increased

**Q.** And the “PKA activity in TNF-α-stimulated HUVECs” value ([12]; MPTAG alone or together with SQ 22536)?
**A.** restored PKA activity
